From patent US9772334B2, “Inflammatory bowel disease markers and therapies for colitis-associated intestinal fibrosis” (THE REGENTS OF THE UNIVERSITY OF CALIFORNIA, priority 2012, dated 2017)

Columns and labels:
[1] = test system: TNBS mediated chronic colitis; assay: TNBS mediated chronic colitis in mice, intracolonic mCRAMP; type: in vivo; settings: for colonic collagen deposition / TNBS induced colonic TNFα protein expression / colonic colla2 mRNA: intracolonic
Protocol: FIG. 1A is an illustration of the experimental plan of TNBS mediated chronic colitis. Wild-type and […] mice were injected with TNBS solution (0.5-1 mg per 20 g mice) in 30% ethanol or 30% ethanol only (vehicle control) under transient isoflurane anesthesia. […] All ethanol treated groups had approximately 20% body weight gain. […] Results are representative of n=6 mice per group.
Collagen was stained in blue. Collagen deposited in mucosal and submucosal layer of TNBS treated wild-type mice was reduced by CRAMP treatment. […] Intracolonic treatment of mCRAMP reduced colonic colla2 mRNA and collagen deposition in both WT (p=0.0364) and Camp^−/− (p=0.04) mice. Results are representative of n=6 mice per group.
Fibroblasts accumulated in the mucosal and submucosal locations as collagen deposition. […] Three different locations (3 separate images) per sample were counted. […] Cell migration was not affected by LL-37 (0-10 μM). Results are representative of 3 independent experiments.

[2] = test system: TNBS acute colitis; assay: TNBS treated acute colitis in mice, intracolonic mCRAMP; type: in vivo; settings: for colonic 16S expression: intracolonic
Source text: FIG. 20A is an illustration of TNBS experimental plan. […] Experiments included n=6 mice per group.
FIGS. 21B and 21C show colonic Camp mRNA expression of mice. […] There was no significant difference in 16S expression among wild-type and Camp−/− mice. n=6 mice per group.

[3] = test system: TNFα expression in Raw264.7 macrophages; assay: PAMP induced TNFα expression in Raw264.7 macrophages; type: cell-based, mouse; settings: flagellin 50 ng/ml
[4] = test system: Akt and ERK phosphorylation in Raw 264.7 macrophages; assay: LPS induced Akt and ERK phosphorylation in Raw 264.7 macrophages; type: cell-based, mouse; settings: mCRAMP 10 μM; 30 minutes
Source text: […]. LPS induced TNFα expression is Akt dependent. […] All experiments are representative of 3 independent experiments.

[5] = test system: DSS mediated colitis; settings: intracolonic exogenous peptide; Tai et al. 2007; cited from earlier work
[6] = test system: TNFα expression in Raw264.7 macrophages; assay: PAMP induced TNFα expression in Raw264.7 macrophages; type: cell-based, mouse
Protocol: To identify the anti-inflammatory mechanism of cathelicidin, human PBMCs and mouse macrophages to were exposed to PAMP signals (LPS and E. coli DNA) in the presence of cathelicidin LL-37 or mCRAMP (1-10 μM).

mCRAMP
colonic collagen deposition ([1]; Camp−/− mice): reduced
TNBS induced colonic TNFα protein expression ([1]; Camp−/− mice, p=0.0054): significantly reduced TNBS induced TNFα protein expression
colonic colla2 mRNA ([1]; Camp−/− mice, p=0.04): reduced
histology score (H&E) ([1]; Camp−/− mice, p=0.04): significantly reduced histology score
percent of body weight change (week 0 to week 7) ([1]; TNBS treated Camp−/− mice): significant body weight loss regardless of mCRAMP treatment
collagen deposited in mucosal and submucosal layer (Masson Trichrome staining) ([1]; TNBS treated wild-type mice): reduced
percent of body weight change (week 0 to week 7) ([1]; TNBS treated wild-type mice, p=0.01): restored the body weight gain
colonic vimentin mRNA expression ([1]; WT and Camp−/− mice): did not affect
colonic α-SMA mRNA expression ([1]; WT and Camp−/− mice): did not affect
colonic collagen deposition ([1]; WT mice): reduced
TNBS induced colonic TNFα protein expression ([1]; WT mice, p=0.0127): significantly reduced TNBS induced TNFα protein expression
colonic colla2 mRNA ([1]; WT mice, p=0.0364): reduced
fibroblast accumulation (number of fibroblasts per field, vimentin immunohistochemistry) ([1]; chronic TNBS colitis): not affected
TNBS induced intestinal fibrosis ([1]; mCRAMP 5 mg/kg intracolonically): significantly reduces TNBS induced intestinal fibrosis
histology score (H&E) ([1]; wild-type mice, p=0.03): significantly reduced histology score
colonic TNFα levels ([2]; Camp−/− mice): significantly reduced colonic TNFα levels
colonic 16S expression ([2]; Camp−/− mice): significantly reduced colonic 16S expression
histological damage (histological score) ([2]; Camp−/− mice, p=0.0484): significantly reduced histological damage
colonic TNFα levels ([2]; wild-type mice): significantly reduced colonic TNFα levels
colonic 16S expression ([2]; wild-type mice): significantly reduced colonic 16S expression
histological damage (histological score) ([2]; wild-type mice, p=0.0006): significantly reduced histological damage
flagellin induced TNFα expression [3]: no inhibitory effect
LPS induced Akt phosphorylation [4]: significantly suppressed
LPS induced ERK phosphorylation [4]: significantly suppressed
DSS mediated colitis [5]: ameliorates DSS mediated colitis
LPS induced TNF mRNA expression ([6]; mCRAMP 10 μM, 6 and 16 hours): did not alter
LPS induced TNFα protein expression in conditioned media ([6]; mCRAMP 10 μM, LPS 0.1 μg/ml, 16 hours): significantly reduced
E. coli DNA induced TNFα expression ([6]; mCRAMP 1-10 μM, E. coli DNA 0.5 μg/ml, 16 hours): no inhibitory effect
